# Test results as given in patent publication US12630493B2, “Anti-inflammatory compounds” (priority 2018, dated 2026).
# “Also recorded” adds a separate entry of the source.
# Legend:
# TNF-[…] = assay: kavain analog screening assay, TNF inhibition in BMM infected with P. gingivalis; format: cell-based, murine
# Description: (§1) To identify compounds with strong anti-inflammatory properties, kavain analogs were tested in a screening assay based on TNF-[…] inhibition in BMM infected with P. gingivalis (FIG. 1B). This screen identified Kava-205Cl (5,5-dimethyl-3-oxocyclohex-1-en-1-yl 4-chlorobenzoate) and its methylated analog Kava-205Me (5,5-dimethyl-3-oxocyclohex-1-en-1-yl 4-methylbenzoate) (FIG. 1B) as effective inhibitors of TNF-[…] secretion (z=−0.99 and z=−1.07 respectively).
# TNF-α [1] = assay: TNF-α secretion, dose-response in THP-1 infected with P. gingivalis; format: cell-based, human
# Description: (§2) See Amar, Salomon et al., Identification of a Kavain Analog with Efficient Anti-inflammatory Effects, [Currently unpublished], 2019. (Incorporated by reference in its entirety, herein). Specifically, in an in vitro assay of anti-inflammatory effects, murine macrophages (BMM) and THP-1 cells were infected with P. gingivalis (MOI=20:1) and a panel of cytokines were measured.
# as §1
# TNF-α [2] = assay: TNF-α secretion, dose-response in BMM infected with P. gingivalis; format: cell-based, murine
# Description: as §2, §1
# [3] = system: IL-12, IFN-γ, MIP-1β, RANTES, IL-10, G-CSF and eotaxin; assay: multiplex analysis of chemokines and cytokines from BMM exposed to P. gingivalis; format: cell-based, murine
# Description: as §2
# (§3) P. gingivalis is able to induce sustained recruitment of immune cells such a neutrophils and T-lymphocytes, whose presence is associated with excessive inflammation and tissue destruction at infectious sites. To evaluate the effect of Kava-205Me on the secretion of chemokines and cytokines from BMM exposed to P. gingivalis, a multiplex analysis was performed that compared P. gingivalis infected cells with and without treatment with Kava-205Me. […] Moreover, the gene expression of ACP5, an osteoclast specific gene, was evaluated in BMM infected with P. gingivalis with or without Kava-205Me treatment.
# ACP5 = ACP5 gene expression in BMM infected with P. gingivalis; format: cell-based, murine
# Description: as §3
# [4] = system: P. gingivalis-induced calvarial destruction; assay: acute model of P. gingivalis-induced calvarial destruction; format: in vivo
# Description: as §2
# In an acute model of P. gingivalis infection, Kava-205Me was administered to evaluate its anti-inflammatory and pro-healing properties in vivo. In this calvarial model, injection of P. gingivalis induced formation of a cutaneous abscess characterized by dermal inflammation and bone destruction (FIG. 4).
# [5] = system: infective arthritis (collagen-antibody + P. gingivalis); assay: infective arthritis murine model, P. gingivalis and AB peritoneal injection (Kava-205Me); format: in vivo, mice
# Description: as §2
# To evaluate the systemic effect of Kava-205Me, an infective arthritis was induced in mice by the combined insults of P. gingivalis and AB peritoneal injection. After 10 days, significant paw swelling was observed, confirming the establishment of joint inflammation and a destructive process (FIG. 5). […] This anti-inflammatory effect was confirmed histologically (FIG. 5C).
# [6] = system: P. gingivalis+ type II collagen antibody induced periodontitis; assay: collagen antibody primed oral gavage model of periodontitis; format: in vivo, mice
# Description: The effect of Kava-241 on periodontal destruction in a collagen antibody primed oral gavage model of periodontitis was evaluated. In this example, experimental periodontitis was induced by oral gavage of P. gingivalis+ type II collagen antibody (AB) in mice during 15 days. Mice were treated with Kava-241 concomitantly or prior to P. gingivalis gavage and compared to untreated mice. Comprehensive histomorphometric analyses were performed. […] The Kava-241 effect was associated with a reduction in inflammatory cell counts within soft tissues and an increase in fibroblasts.
# [7] = system: infective arthritis (P. gingivalis + ArthritoMab antibody cocktail); assay: infective arthritis murine model triggered by P. gingivalis and primed with collagen antibody cocktail (Kava-241); format: in vivo, DBA1/BO male mice; conditions: CIA cocktail, treated concomitantly
# Excerpt: Kava-241 (I-BC-241) is a compound derived from kavain and has been synthesized as described previously. In this example, we evaluated the systemic and articular effects Kava-241 in an infective arthritis murine model triggered by P. gingivalis bacterial inoculation and primed with collagen antibody cocktail (CIA) to induce joint inflammation and tissular destruction. Arthritis was induced in twenty-eight six-week-old, pathogen-free DBA1/BO male mice by two consecutive injections of ArthritoMab (AB) Antibody cocktail (CIA-MAB-2C, MD Bioproducts, Oakdale, MN, USA), the first injection of 7 mg at baseline, followed by a second injection of 4 mg at day 5. For P. gingivalis injected groups, 3 intraperitoneal injections of 5.10^8 bacteria/100 μl were performed at days 2, 8 and 11. Mice were sacrificed after 17 days. Clinical inflammation score and radiological analysis of the paws were performed continuously while histological assessment was obtained at sacrifice. Forepaws were evaluated to score arthritis using a visual qualitative assessment scoring as follows: 0) no paw swelling, 1) mild swelling, 2) moderate swelling, 3) severe swelling (22). Inflammation was also evaluated with X-rays examination.
# TNF-α [8] = assay: serum TNF-α in mice injected with P. gingivalis-lipopolysaccharide; format: in vivo; conditions: mice injected with TLR 2/4 ligand P. gingivalis-LPS
# [9] = system: TLR-2/4, MAPKs related signal elements, LITAF; assay: signalling in bone-marrow derived macrophages infected with P. gingivalis; format: cell-based, murine; conditions: BMM infected with P. gingivalis
# TNF-α [10] = conditions: Escherichia coli LPS-stimulated RAW cells; cited from earlier work
# [11] = system: P. gingivalis+ type II collagen antibody induced periodontitis; conditions: P. gingivalis induced PD in a collagen antibody primed mouse model; cited from earlier work
# [12] = collagen-antibody (ArthriomAb)+P. gingivalis
# [13] = P. gingivalis+ AG group, p<0.05
smiles,measurement,setting,value
"Cc1ccc(C(=O)OC2=CC(=O)CC(C)(C)C2)cc1 [Kava-205Me, 5,5-dimethyl-3-oxocyclohex-1-en-1-yl 4-methylbenzoate]","TNF-[…] secretion, z",TNF-[…],−1.07
same,TNF-α secretion induced by P. gingivalis,"TNF-α [1]; THP-1 cells, MOI=20:1, 10 to 200 μg/ml",significantly and dose-dependently reduced
same,TNF-[…] secretion,"TNF-α [1]; THP-1 infected with P. gingivalis, lowest tested dose 10 µg/ml",reduced significantly
same,TNF-[…] secretion,"TNF-α [2]; BMM infected with P. gingivalis, lowest tested dose 10 µg/ml",reduced significantly
same,TNF-α secretion induced by P. gingivalis,"TNF-α [2]; BMM, MOI=20:1, 10 to 200 μg/ml",significantly and dose-dependently reduced
same,"concentrations of chemokines and cytokines (IL-12, IFN-γ, MIP-1β, RANTES, IL-10, G-CSF and eotaxin)","[3]; BMM exposed to P. gingivalis, multiplex analysis",significantly reduced
same,"secretion of IL-12, eotaxin, RANTES, IL-10 and interferon-γ","[3]; BMM infected with P. gingivalis, p<0.05",reduced
same,ACP5 gene expression,ACP5,reduced
same,osteoclastic activity,[4],reduced; also recorded: trend of reduction
same,rate of healing,[4]; P. gingivalis injection,significantly improved; also recorded: significantly increased
same,soft tissue inflammation,[4]; histological level,reduced significantly
same,number of TRAP positive multinucleated cells in contact with bone (osteoclastic activity of the infiltrate),[5]; P. gingivalis-exposed animals,reduction
same,inflammatory infiltrate in paw tissue sections,"[5]; animals exposed to P. gingivalis, histology",significant reduction
same,joint destruction,[5]; [12],reduce efficiently
same,paw swelling,[5]; [12],reduce efficiently
same,P. gingivalis-induced paw swelling,"[5]; systemic administration, 32 day time point",significantly decreased
"CC1(C)CC(=O)C=C(OC(=O)c2ccc(Cl)cc2)C1 [Kava-205Cl, 5,5-dimethyl-3-oxocyclohex-1-en-1-yl 4-chlorobenzoate]","TNF-[…] secretion, z",TNF-[…],−0.99
"CC1(C)CC(=O)C=C(OC(=O)c2ccccc2)C1 [Kava-241, 5,5-dimethyl-3-oxocyclohex-1-en-1-yl benzoate]",reduced alveolar bone loss,[6]; [13],36%
same,reduced epithelial down-growth,[6]; [13],72%
same,inflammatory cell counts within soft tissues,[6]; periodontitis model,reduction
same,fibroblasts,"[6]; periodontitis model, soft tissues",increase
same,clinical inflammatory score,[7],reduced
same,number of inflammatory cells within joint,[7],decreased
same,number of osteoclasts within joint,[7],decreased
same,TNF-α in serum,TNF-α [8],decreased significantly
same,LITAF,[9],reduced
same,MAPKs related signal elements,[9],reduced
same,TLR-2/4,[9],reduced
same,TNF-α secretion,TNF-α [10],reduced
same,inflammation including alveolar bone loss,[11],prevented
